Here are results for eleven molecules from ChEMBL document CHEMBL1201862, “PubChem BioAssay data set” (2004).

Common to all, as to assay: NCI anticancer screen, dose series, 48 h
Assay [1] deals with 786-0.
The test system of assay [2] is A549.
Assay [3] has as its system BT-549.
The test system of assay [4] is CAKI-1.
Assay [5] deals with HCT-15.
Assay [6] deals with KM12.
Assay [7] has as its system M14.
In assay [8] the test system is MCF7.
For assay [9], the system named is Malme-3M.
In assay [10] the test system is NCI-H522.
Assay [11] relates to OVCAR-3.
For assay [12], the system named is OVCAR-4.
The subject of assay [13] is OVCAR-5.
Assay [14] concerns PC-3.
Assay [15] relates to SNB-19.
Assay [16] deals with SNB-75.
The subject of assay [17] is T47D.
Assay [18] deals with U-251.
Assay [19] has as its system UACC-62.

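These data come from cells grown in 96-well plates and exposed to compound for 48 hours at five concentrations. The concentration for 50% growth inhibition is given as GI50.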 The source made the active and inactive calls. Rule as the data show it: active = GI50 up to about 1.1 µM and inactive = higher.

`NCCSCCc1ccccc1`: the GI50 in assay [1] was > 100 µM (inactive); in assay [2], > 100 µM (inactive); in [3], > 100 µM (inactive); in assay [4], > 100 µM (inactive); in [5], over 100 µM; in [6], > 100 µM (inactive). Further, the GI50 in assay [7] was > 100 µM (inactive); in assay [8] it was > 100 µM (inactive); in [9], > 100 µM (inactive); in assay [10], 58.6 µM (inactive); in assay [11] it was 68.2 µM (inactive); in assay [12], > 100 µM (inactive). Further, the GI50 in assay [13] is > 100 µM (inactive); in assay [14], > 100 µM (inactive); in assay [15] it was > 100 µM (inactive); in [16], > 100 µM (inactive); in [17], 55.1 µM (inactive); in assay [18], > 100 µM (inactive). In addition, the GI50 in [19] is > 100 µM (inactive).
Turning to `O=[N+]([O-])c1cc(Cc2cc([N+](=O)[O-])c3cccnc3c2O)c(O)c2ncccc12`, the GI50 was 5.82 µM (inactive) in assay [1]; 6.56 µM (inactive) in assay [2]; 21.7 µM (inactive) in [3]; 8.77 µM (inactive) in assay [4]; 4.23 µM in assay [5]; 6.71 µM (inactive) in assay [6]. The GI50 was 6.07 µM (inactive) in assay [7]; 4.4 µM (inactive) in [8]; 6.68 µM (inactive) in assay [9]; 3.51 µM (inactive) in assay [10]; 2.38 µM (inactive) in assay [11]; 4.05 µM (inactive) in [12]. In addition, the GI50 was 24.8 µM (inactive) in assay [13]; 4.41 µM (inactive) in assay [14]; 6.78 µM (inactive) in assay [15]; 7.18 µM (inactive) in assay [16]; 4.48 µM (inactive) in assay [17]; 3.91 µM (inactive) in assay [18]. The GI50 in assay [19] was 9.48 µM (inactive).
With `Cc1cc(NS(=O)(=O)c2ccc(NC(=O)c3ccc4nc5ccccc5c(Nc5ccc(S(N)(=O)=O)cc5)c4c3)cc2)no1`, the GI50 in [1] was 17.1 µM (inactive); in assay [2] it was 24.6 µM (inactive); in assay [3], 28 µM (inactive); in assay [4] it was 38.1 µM (inactive); in assay [5], 19.2 µM; in assay [6] it was 22.9 µM (inactive). Also, the GI50 was 30 µM (inactive) in assay [7]; 19.9 µM (inactive) in assay [8]; 21.5 µM (inactive) in [9]; 17.8 µM (inactive) in [10]; 27.5 µM (inactive) in [11]; 27.4 µM (inactive) in assay [12]. Also, the GI50 in [13] is 27 µM (inactive); in assay [14], 32.3 µM (inactive); in [15] it was 58.2 µM (inactive); in assay [16], 38.2 µM (inactive); in assay [17], 24.2 µM (inactive); in [18], 25.5 µM (inactive). For the same molecule, in [19], the GI50 was 29.7 µM (inactive).
For the molecule `O=C(NNC(=S)Nc1cccc(Cl)c1)c1cc(-c2ccccc2)nc2ccccc12`, the GI50 is 17.1 µM (inactive) in assay [1]; 16.3 µM (inactive) in assay [2]; 19.4 µM (inactive) in [3]; 19.3 µM (inactive) in assay [4]; 14.6 µM in assay [5]; 18.5 µM (inactive) in assay [6]. Besides, the GI50 is 17.5 µM (inactive) in assay [7]; 10 µM (inactive) in assay [8]; 15.4 µM (inactive) in assay [9]; 14.5 µM (inactive) in [10]; 15.1 µM (inactive) in assay [11]; 14.3 µM (inactive) in assay [12]. Further, the GI50 in [13] is 15.4 µM (inactive); in [14], 15.1 µM (inactive); in assay [15], 17 µM (inactive); in assay [16], 23.8 µM (inactive); in [17], 14.9 µM (inactive); in assay [18] it was 12.3 µM (inactive). In addition, the GI50 in [19] is 13.4 µM (inactive).
Turning to `CCn1c2ccc(C(=O)CCCN(C)C)cc2c2cc(C(=O)CCCN(C)C)ccc21`, the GI50 is 0.243 µM (active) in assay [1]; 0.867 µM (active) in [2]; 3.38 µM (inactive) in [3]; 2.55 µM (inactive) in assay [4]; 1.27 µM in [5]; 1.18 µM (inactive) in [6]. The GI50 in assay [7] was 1.95 µM (inactive); in [8], 0.659 µM (active); in assay [9] it was 2.81 µM (inactive); in assay [10], 3.04 µM (inactive); in [11], 1.27 µM (inactive); in [12] it was 1.18 µM (inactive). Besides, the GI50 was 1.79 µM (inactive) in assay [13]; 1.3 µM (inactive) in assay [14]; 1.6 µM (inactive) in assay [15]; 2.97 µM (inactive) in assay [16]; 10.2 µM (inactive) in [17]; 2.24 µM (inactive) in assay [18]. In addition, the GI50 in [19] is 7.59 µM (inactive).
As to `COc1c2c(cc3c1C1(O)Cc4ccc5c(c4C[N+]1(C)CC3)OCO5)OCO2` (centres undefined), the GI50 in [1] is > 100 µM (inactive); in assay [2], > 100 µM (inactive); in assay [3], > 100 µM (inactive); in assay [4], > 100 µM (inactive); in assay [5], over 100 µM; in [6], > 100 µM (inactive). The GI50 was > 100 µM (inactive) in assay [7]; > 100 µM (inactive) in [8]; > 100 µM (inactive) in [9]; 72.9 µM (inactive) in assay [10]; > 100 µM (inactive) in assay [11]; > 100 µM (inactive) in assay [12]. For the same molecule, the GI50 in assay [13] was > 100 µM (inactive); in assay [14], 73.5 µM (inactive); in [15], > 100 µM (inactive); in [16] it was > 100 µM (inactive); in assay [17] it was > 100 µM (inactive); in assay [18] it was > 100 µM (inactive). Also, the GI50 in assay [19] is > 100 µM (inactive).
For the molecule `O=c1[nH]c(=O)n(C2C(CO)OC(CO)C2O)cc1F` (centres undefined), the GI50 in assay [1] is > 100 µM (inactive); in assay [2] it was > 100 µM (inactive); in assay [3], > 100 µM (inactive); in [4], > 100 µM (inactive); in [5], over 100 µM; in assay [6], > 100 µM (inactive). In addition, the GI50 in [7], in [8], in assay [9], in assay [10], in assay [11] and in [12] was > 100 µM (inactive) in each case. Also, the GI50 in assay [13], in assay [14], in [15], in assay [16], in assay [17] and in assay [18] was > 100 µM (inactive) in each case. Further, the GI50 in assay [19] was > 100 µM (inactive).
For `NC(=O)c1cn(C2OC(CO)C(O)C2O)c2nc[n+]([O-])c(N)c12` (centres undefined), the GI50 in assay [1] was 0.126 µM (active); in [2], 0.285 µM (active); in assay [3], 0.592 µM (active); in [4] it was 0.0497 µM (active); in assay [5], 0.0735 µM; in assay [6] it was 0.153 µM (active). The GI50 in [7] is 0.111 µM (active); in assay [8] it was 0.2 µM (active); in assay [9] it was 0.0398 µM (active); in assay [10], 1.36 µM (inactive); in [11] it was 0.125 µM (active); in assay [12], 0.201 µM (active). Moreover, the GI50 in assay [13] was 0.161 µM (active); in assay [14] it was 0.178 µM (active); in assay [15], 0.542 µM (active); in assay [16] it was 0.13 µM (active); in [17] it was 0.103 µM (active); in [18], 0.285 µM (active). The GI50 in assay [19] is 0.12 µM (active).
Consider `CC1=CC(=O)/C(=C/NC(=S)NCc2ccccc2)C(=O)O1`, for which the GI50 in assay [1] was > 100 µM (inactive); in assay [2], > 100 µM (inactive); in assay [3] it was > 100 µM (inactive); in assay [4], > 100 µM (inactive); in assay [5], over 100 µM; in [6] it was > 100 µM (inactive). For the same molecule, the GI50 in [7], in [8], in [9], in assay [10], in assay [11] and in [12] was > 100 µM (inactive) in each case. The GI50 in assay [13] is > 100 µM (inactive); in assay [14], > 100 µM (inactive); in assay [15], > 100 µM (inactive); in [16] it was 80 µM (inactive); in [17], > 100 µM (inactive); in assay [18] it was > 100 µM (inactive). For the same molecule, the GI50 in assay [19] is > 100 µM (inactive).
With `CC1(N2CCOCC2)CC2C(=[N+]1[O-])CCC/C2=N/O` (centres undefined), the GI50 is > 100 µM (inactive) in assay [1]; > 100 µM (inactive) in [2]; > 100 µM (inactive) in [3]; > 100 µM (inactive) in [4]; over 100 µM in assay [5]; > 100 µM (inactive) in assay [6]. Moreover, the GI50 in assay [7], in assay [8], in assay [9], in assay [10], in assay [11] and in assay [12] was > 100 µM (inactive) each time. The GI50 was > 100 µM (inactive) in assay [13]; > 100 µM (inactive) in assay [14]; > 100 µM (inactive) in [15]; 0.334 µM (active) in [16]; > 100 µM (inactive) in assay [17]; > 100 µM (inactive) in assay [18]. The GI50 in assay [19] is > 100 µM (inactive).
With `CCc1nc(N)nc(N)c1-c1ccc(NCCN)c([N+](=O)[O-])c1`, the GI50 was 7.03 µM (inactive) in assay [1]; 4.19 µM (inactive) in assay [2]; 36.1 µM (inactive) in [3]; 53.1 µM (inactive) in assay [4]; 37 µM in [5]; 17.7 µM (inactive) in [6]. The GI50 is 8.63 µM (inactive) in [7]; 10.2 µM (inactive) in assay [8]; 13.7 µM (inactive) in [9]; 13.7 µM (inactive) in assay [10]; 21.8 µM (inactive) in assay [11]; 20.7 µM (inactive) in [12]. The GI50 in assay [13] was 33.9 µM (inactive); in [14] it was 6.53 µM (inactive); in [15], 24.7 µM (inactive); in assay [16], 19.7 µM (inactive); in assay [17], 33.6 µM (inactive); in [18], 9.08 µM (inactive). The GI50 in [19] is 6.3 µM (inactive).
